# According to the supplement of paper PMC10307832:
# Assays:
# Assay in all cases: relative viability (nuclei count vs DMSO), 5 days (fraction); higher = more cells survive
# [1] = compound: CCC1=CN=CN=C1N2CCN(CC2)CC3=NC4=C(N3)C=C(C=C4)C(F)(F)F + COc1cccc2cc(-c3nc([C@H]4CC[C@H](C(=O)O)CC4)n4ncnc(N)c34)[nH]c12 [OSI-027] (partner 0.5 µM)
# Summary of the method: (§1)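 A single step with final 0.05% Triton X-100, 1% formaldehyde and 1 ug/ml Hoechst fixed the cells and stained nuclei 5 days after treatment. Lung cancer cell lines in 1536-well plates had been treated by pin tool the day after seeding with one drug alone or a fixed anchor-drug dose plus five library-drug doses (not always all listed) in √10 steps, and nuclei were counted on 4× images. Relative viability is the ratio of nuclei in treated wells to nuclei in vehicle wells, taken as the median of duplicate plates.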
# [2] = compound: CCC1=CN=CN=C1N2CCN(CC2)CC3=NC4=C(N3)C=C(C=C4)C(F)(F)F + N=C(N)NC(=N)NCCc1ccccc1 [Phenformin] (partner 250 µM)
# Summary of the method: as §1
# [3] = compound: CCn1c(-c2nonc2N)nc2cnc(Oc3cccc(NC(=O)c4ccc(OCCN5CCOCC5)cc4)c3)cc21 + CC(C)C[C@H](NC(=O)[C@H](Cc1ccccc1)NC(=O)c1cnccn1)B(O)O [Bortezomib] (partner 0.002 µM)
# Summary of the method: as §1
# Mirin + Bortezomib = compound: N=C1NC(=O)/C(=C/c2ccc(O)cc2)S1 [Mirin] + CC(C)C[C@H](NC(=O)[C@H](Cc1ccccc1)NC(=O)c1cnccn1)B(O)O [Bortezomib] (partner 0.002 µM)
# Summary of the method: as §1
Cell Line,relative viability ([1]; first compound 0.04 µM),relative viability ([1]; first compound 0.1265 µM),relative viability ([1]; first compound 0.4 µM),relative viability ([1]; first compound 1.265 µM),relative viability ([1]; first compound 4 µM),relative viability ([2]; first compound 0.04 µM),relative viability ([2]; first compound 0.1265 µM),relative viability ([2]; first compound 0.4 µM),relative viability ([2]; first compound 1.265 µM),relative viability ([2]; first compound 4 µM),relative viability ([3]; first compound 0.04 µM),relative viability ([3]; first compound 0.1265 µM),relative viability ([3]; first compound 0.4 µM),relative viability ([3]; first compound 1.265 µM),relative viability ([3]; first compound 4 µM),relative viability (Mirin + Bortezomib; first compound 0.25 µM),relative viability (Mirin + Bortezomib; first compound 0.7906 µM),relative viability (Mirin + Bortezomib; first compound 2.5 µM),relative viability (Mirin + Bortezomib; first compound 7.906 µM),relative viability (Mirin + Bortezomib; first compound 25 µM)
LXF-289,0.762,0.713,0.628,0.643,0.815,0.54,0.461,0.547,0.483,0.529,1.03,1.04,0.932,0.728,0.646,0.99,1.08,1.01,1.02,1.11
NCI-H23,0.603,0.65,0.641,0.58,0.551,0.703,0.742,0.768,0.73,0.792,1.44,1.16,,0.856,0.512,1.3,,1.15,0.842,0.817
NCI-H322M,0.608,0.495,0.59,0.449,0.527,0.874,0.761,0.772,0.632,0.799,1.2,1.26,1.22,1.58,1.55,1.22,1.29,1.41,1.42,1.24
NCI-H441,0.478,0.611,0.543,0.56,0.6,0.699,0.874,0.718,0.868,0.833,0.484,0.895,0.458,0.42,0.374,0.387,0.645,0.449,0.314,0.409
NCI-H460,0.752,0.59,0.645,0.538,0.595,0.465,0.525,0.484,0.439,0.499,1.09,1.03,0.716,0.5,0.26,1.22,1.2,1.21,1.12,1.15
NCI-H520,0.261,0.32,0.268,0.214,0.248,0.553,0.648,0.38,,0.46,0.749,0.614,0.537,0.349,0.239,0.503,0.13,0.632,0.355,0.358
NCI-H596,0.723,0.683,0.743,,0.915,0.729,0.66,0.67,,0.79,0.985,0.905,0.924,0.8,0.746,1.12,,0.982,1,0.905
NCI-H647,0.671,0.855,0.557,0.413,0.462,0.555,0.589,0.518,0.461,0.626,0.847,0.654,0.614,0.536,0.631,1.24,0.909,1.04,0.816,0.444
NCI-H650,0.444,0.427,0.555,0.543,0.511,0.442,0.418,0.466,0.454,0.464,1.14,0.631,0.349,0.295,0.374,0.915,,0.84,,0.937
NCI-H661,0.629,0.674,0.669,0.586,0.621,0.28,0.259,0.301,0.263,0.313,0.896,0.865,0.815,0.608,0.616,0.696,0.787,0.836,0.518,0.527
NCI-H727,0.531,0.618,0.581,0.423,0.533,0.505,0.541,0.439,,0.671,1.44,0.983,0.787,0.97,0.88,1.24,1.18,0.832,0.997,0.907
NCI-H838,0.443,0.438,0.403,0.313,0.354,0.575,0.507,0.536,0.434,0.596,0.729,0.397,0.319,0.385,0.31,0.865,0.521,0.884,0.78,0.738
NCI-H1355,0.433,0.406,0.373,0.327,0.391,0.456,0.428,0.406,0.395,0.424,1.22,1.27,1.02,0.72,0.621,1.3,1.19,1.16,1.23,1.38
NCI-H1437,0.857,0.847,0.777,0.667,0.749,0.343,0.295,0.302,0.255,0.317,0.518,0.427,0.514,0.499,0.364,0.498,0.436,0.438,0.41,0.472
NCI-H1563,0.813,0.788,0.733,0.685,0.821,0.713,0.639,0.662,0.661,0.689,0.793,0.821,0.669,0.753,0.603,1.07,1.11,0.943,0.8,0.812
NCI-H1650,0.635,0.621,0.565,,0.752,0.484,0.519,0.392,,0.416,0.258,0.21,0.196,0.209,0.211,0.196,0.2,0.216,0.208,0.191
NCI-H1651,0.805,0.795,0.641,0.757,0.788,0.369,0.321,0.308,0.332,0.375,0.9,0.94,0.824,0.496,0.86,0.912,0.959,0.931,0.854,0.916
NCI-H1666,0.736,0.81,0.816,0.803,0.873,0.569,0.551,0.52,0.555,0.594,0.785,1.02,0.65,0.459,0.385,0.883,0.873,0.976,0.513,0.479
NCI-H1734,0.601,0.557,0.58,0.513,0.714,0.377,0.379,0.427,0.381,0.445,0.889,0.837,0.511,0.412,0.35,0.952,0.778,0.987,0.831,0.793
NCI-H1755,0.712,0.691,0.717,0.458,0.663,0.632,0.583,0.597,0.484,0.634,0.97,0.781,0.649,0.533,0.512,0.951,1.03,0.979,0.873,1.11
NCI-H1792,0.89,0.684,0.698,0.668,0.547,0.382,0.259,0.162,,0.222,1.09,1,,0.631,0.817,0.982,0.997,0.902,0.883,0.984
NCI-H1915,0.612,0.629,0.605,0.49,0.587,0.361,0.362,0.376,0.344,0.358,1.16,0.94,0.958,0.653,0.314,1.03,,1.01,0.931,0.945
NCI-H1975,0.766,0.68,0.676,0.579,0.64,0.434,0.392,0.374,0.382,0.436,0.244,0.263,0.227,0.177,0.165,0.375,0.366,0.468,0.498,0.321
NCI-H1993,0.49,0.55,0.614,0.494,0.604,0.551,0.461,0.496,0.537,0.579,1.09,1.16,,0.882,1.02,1.04,1.12,1.06,1.02,0.972
NCI-H2009,0.591,0.68,0.589,0.502,0.591,0.483,0.498,0.45,0.419,0.374,1.06,0.875,0.647,0.322,0.318,1,0.831,1.12,0.869,1.14
NCI-H2023,0.447,0.403,0.342,0.321,0.453,0.449,0.433,0.442,0.378,0.393,1.25,0.918,0.621,0.504,0.394,1.13,0.807,1,1.05,0.926
NCI-H2085,0.825,0.608,0.728,0.328,0.724,0.724,0.78,0.663,0.522,0.735,1.11,1.01,0.86,0.872,0.861,1.13,0.972,1.18,0.975,1.02
